Experimental data published in PMC3991326, “Optimal Translational Termination Requires C4 Lysyl Hydroxylation of eRF1” (Molecular Cell, 2014).

Target: T1, Jmjd4 (Homo sapiens, UniProt Q9H9V9)
T1 construct: recombinant from E. coli, Ni-NTA purified
T1 sequence (Q9H9V9 1-417): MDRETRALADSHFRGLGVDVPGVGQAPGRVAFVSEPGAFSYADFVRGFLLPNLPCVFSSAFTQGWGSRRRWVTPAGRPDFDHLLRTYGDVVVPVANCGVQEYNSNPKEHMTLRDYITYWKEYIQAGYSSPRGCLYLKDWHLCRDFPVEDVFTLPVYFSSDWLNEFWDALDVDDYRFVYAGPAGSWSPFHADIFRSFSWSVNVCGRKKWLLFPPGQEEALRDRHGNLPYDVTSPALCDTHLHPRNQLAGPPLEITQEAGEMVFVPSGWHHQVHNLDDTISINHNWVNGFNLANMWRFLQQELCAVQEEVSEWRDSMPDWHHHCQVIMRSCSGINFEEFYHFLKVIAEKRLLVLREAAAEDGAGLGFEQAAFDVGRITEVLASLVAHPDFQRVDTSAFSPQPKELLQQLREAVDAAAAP
Experiment: in vitro hydroxylation of recombinant eRF1 K63
Format: biochemical
Conditions: eRF1 as prime substrate; Fe(II), 2OG; competitive with 2OG (stated for 2OG oxygenases in general)

O=C(O)CNC(=O)C(=O)O [NOG]
in vitro hydroxylation of recombinant eRF1 K63: eRF1 K63 hydroxylation was significantly impaired by a 2OG competitive inhibitor (NOG, N-Oxalylglycine)
